Measurements reported in patent publication US11198869B2, “Angelman syndrome antisense treatment” (The Texas A&M University System, priority 2017, dated 2021).
pIC50: −log10 of the molar value. Where two headings read alike, the source gives them in different places.

Experiments:
UBE3A-AS = UBE3A-AS steady state RNA (TaqMan qRT-PCR) in GABAergic iPSC-derived neurons; format: cell-based, human; conditions: for low concentration that significantly reduced UBE3A-AS RNA levels: human iPSC-derived neurons; for Relative Potency: relative to ASO 4.S = 1; for pIC50: read-out: IC50 Estimate, UBE3A-AS; for Difference, UBE3A-AS RNA level / UBE3A-AS RNA levels relative to the control treatment (in words): ASOs 10 μM; for decrease of UBE3A-AS RNA levels: 10 μM
Description: Human-specific ASOs were then designed to target this region, which included four ASOs targeting non-polymorphic regions in human and regions conserved (100%) with macaque (Rhesus and Cynomolgus) (Table 7 and FIG. 3A). Human induced pluripotent stem cell (iPSC) neural precursor cells were differentiated into GABAergic neurons for 14 DIV and then treated with a control ASO [ASO-C (10 μM, n=3)], Topotecan [Topo (1 μM, n=2)], and six ASOs targeting UBE3A-AS [ASO-1, ASO-2, ASO-3, ASO-4, ASO-5, and ASO-6 (10 μM, n=3)]. Additionally, an ASO targeting an intronic region downstream of SNORD109B was included (ASO-7). Six days post-treatment (20 DIV), RNA was isolated from the neurons and the steady state RNA levels of UBE3A-AS and UBE3A were estimated relative to the control treatment (FIG. 3B).
The potency of ASO-4 was further examined given its effect on UBE3A-AS RNA levels. GABAergic iPSC-derived neurons were treated at 14 DIV with a 10-point ½ log dose response curve of ASO-4 and Topotecan, as a positive control and for comparisons between treatment [1 nM, 3 nM, 10 nM, 30 nM, 100 nM, 300 nM, 1 μM, 3 μM, 10 μM, and 30 μM (ASO-4, n=6; Topotecan, n=2)]. At 20 DIV, the steady state RNA levels of UBE3A-AS were measured and dose response curves fitted to estimate the IC50 and Emax (i.e., maximum UBE3A-AS inhibition) (Table 9 and FIG. 4A). […]
Additional ASOs targeting the 5′-end of UBE3A-AS were then designed to optimize the target sequences of ASO-4 (ASO-4.1, ASO-4.2, ASO-4.3, and ASO-4.4) as well as two other target regions, ASO-3 (ASO-3.1 and ASO-3.2) and ASO-6 (ASO-6.1) (Table 11). Additionally, ASO-4 was manufactured at two different vendors for comparative purposes (ASO-4.S, Sigma; ASO-4.I, Integrated DNA Technologies). Human iPSC-derived neurons (GABAergic) were treated at 14 DIV with a […] ½ log dose curve of ASO-3.1, ASO-3.2, ASO-4.S, ASO-4.I, ASO-4.1, ASO-4.2, ASO-4.3, ASO-4.4, and ASO-6.1 [30 nM, 100 nM, 300 nM, 1 μM (n=6)]. At 20 DIV, the IC50 and Emax of each ASO was estimated as described above (FIG. 5A-B and Table 12). […] No significant difference was observed between ASO-4.S and ASO-4.I.
The potency of ASO-4 and ASO-6.1 was further examined in iPSC-derived neurons at a later time point in differentiation. GABAergic iPSC-derived neurons were treated at 29 DIV with a 10-point ½ log dose response curve of ASO-4 and ASO-6.1 [1 nM, 3 nM, 10 nM, 30 nM, 100 nM, 300 nM, 1 μM, 3 μM, 10 μM, and 30 μM (n=3)]. At 35 DIV, the IC50 and Emax of each ASO was estimated as described above (FIG. 5C-D and Table 14). The dose response curves of ASO-4 and ASO-6.1 were not similar (Parallelism test: F(3,172)=22.7, p<0.0001).
(§1) GABAergic and glutamatergic induced pluripotent stem cell (iPSC) derived neural precursor cells (NRC-100-010-001 and GNC-301-030-001, Cellular Dynamics International, Madison Wis.) were differentiated into neurons according to the manufactures protocol. Briefly, neural precursor cells were thawed and resuspended in chemically defined medium and added to sterile-culture plates coated with poly-D-lysine and laminin. The medium was replaced 24 hr after plating and then one-half of the medium was replaced every 3-5 days afterwards.
For cultured iPSC-derived neurons, RNA isolation and cDNA synthesis were performed using the Cell-to-CT kit (Thermo Fisher Scientific) in a lysate volume of 55 μl.
The steady state RNA levels of target transcripts were measured using TaqMan quantitative reverse-transcription PCR (qRT-PCR) assays. Total reaction volume was 10 uL, including 2 μl of cDNA, 1× Gene Expression Master mix (4369016, Thermo Fisher Scientific, Waltham, Mass.), and 1× TaqMan primer assay (Thermo Fisher Scientific). Cycling conditions were 2 minutes at 50° C., 10 minutes at 95° C., and 40 cycles of 15 seconds at 95° C. and 1 minute at 60° C., with readings taken at the 60° C. step of every cycle. […]

UBE3A = UBE3A steady state RNA (qRT-PCR) in glutamatergic iPSC-derived neurons; format: cell-based, human; conditions: 14 DIV to 20 DIV, 10-point dose curve
Description: ASO-4 and ASO-6.1 were also examined in glutamatergic iPSC-derived neurons. Glutamatergic iPSC-derived neurons were treated at 14 DIV with a 10-point ½ log dose response curve of ASO-4 and ASO-6.1 [1 nM, 3 nM, 10 nM, 30 nM, 100 nM, 300 nM, 1 μM, 3 μM, 10 μM, and 30 μM (n=3)]. At 20 DIV, the IC50 and Emax of each ASO was estimated as described above (FIG. 5E-F and Table 15).
as §1, with “afterwards. […]” for “afterwards.”
The steady state RNA levels of target transcripts were measured using TaqMan quantitative reverse-transcription PCR (qRT-PCR) assays. […] Cycling conditions were 2 minutes at 50° C., 10 minutes at 95° C., and 40 cycles of 15 seconds at 95° C. and 1 minute at 60° C., with readings taken at the 60° C. step of every cycle. […] Data was retrieved and analyzed with the BIORAD CFX Maestro software (Bio-Rad Laboratories). […]

[1] = optimized ASOs, 14 DIV to 20 DIV, parallel model, 3-parameter logistic, read-out: IC50 (M), UBE3A-AS
[2] = optimized ASOs, treated 14 DIV, RNA 20 DIV, 5-point dose curve 30 nM-3 μM, full model, 3-parameter logistic
[3] = treated 29 DIV, RNA 35 DIV, 10-point dose curve, full model, 4-parameter logistic (Hill)
[4] = Topo 1 μM, 14 DIV to 20 DIV, ASO-1 minus labelled treatment
[5] = Topo 1 μM, 14 DIV to 20 DIV, ASO-R minus labelled treatment
[6] = Topo 1 μM, 14 DIV to 20 DIV, Topo minus labelled treatment
[7] = Topo 1 μM, treated 14 DIV, RNA 20 DIV, normalized to ASO-C, ASO-C minus labelled treatment
[8] = 14 DIV to 20 DIV, ASO-3 minus labelled treatment
[9] = 14 DIV to 20 DIV, ASO-5 minus labelled treatment
[10] = 14 DIV to 20 DIV, ASO-6 minus labelled treatment
[11] = treated 14 DIV, RNA 20 DIV, 10-point dose curve, 4-parameter logistic (Hill)

IC50 (UBE3A-AS; [1]) [M]	pIC50 (UBE3A-AS; [2])	pIC50 (UBE3A-AS; [3])	Compound	3 μM (Mean), Emax, normalized UBE3A-AS RNA level relative to vehicle (UBE3A-AS; treated 14 DIV, RNA 20 DIV)	30 μM (Mean), normalized UBE3A-AS RNA level relative to vehicle (UBE3A-AS; treated 29 DIV, RNA 35 DIV)	low concentration that significantly reduced UBE3A-AS RNA levels (UBE3A-AS) [nM]	Relative Potency (UBE3A-AS; optimized ASOs, parallel model)	effect on UBE3A RNA levels (in words) (UBE3A)	Difference, UBE3A-AS RNA level (UBE3A-AS; [4])	Difference, UBE3A-AS RNA level (UBE3A-AS; [5])	Difference, UBE3A-AS RNA level (UBE3A-AS; [6])	Difference, UBE3A-AS RNA level (UBE3A-AS; [7])	Difference, UBE3A-AS RNA level (UBE3A-AS; [8])	Difference, UBE3A-AS RNA level (UBE3A-AS; [9])	Difference, UBE3A-AS RNA level (UBE3A-AS; [10])	UBE3A-AS RNA levels relative to the control treatment (in words) (UBE3A-AS; treated 14 DIV, RNA 20 DIV)	30 μM (Mean), normalized UBE3A-AS RNA level relative to vehicle (UBE3A-AS; treated 14 DIV, RNA 20 DIV)	Emax Estimate (normalized UBE3A-AS RNA level relative to vehicle) (UBE3A-AS; [11])	also measured
7.2e-07	6.28	6.29	C^O*U^O*G^O*G^O*t*g*t*c*a*a*c*a*a*g*C^O*C^O*A^O*A^O [ASO-6.1]	0.23	0.06	3	highest relative potency	increased UBE3A RNA levels in a dose dependent manner	–	–	–	–	–	–	–	–	–	–	Relative Potency (UBE3A-AS; optimized ASOs, parallel model, listed as ASO 6.1): 2.07; ASO-6.1/ASO-4 ratio: Emax (equivalence test) (UBE3A-AS; treated 29 DIV, RNA 35 DIV): −1.3; ASO-6.1/ASO-4 ratio: IC50 (equivalence test) (UBE3A-AS; treated 29 DIV, RNA 35 DIV): 1.03
–	–	–	G^O*U^O*A^O*C^O*U^O*c*t*t*c*c*t*c*a*g*t*C^O*A^O*U^O*C^O*C^O [ASO-2]	–	–	–	–	–	0.38	0.87	0.23	0.89	0.10	0.18	0.06	largest effect	–	–	Difference, UBE3A-AS RNA level (UBE3A-AS; 14 DIV to 20 DIV, ASO-4 minus labelled treatment): 0.02
1.49e-06	5.97	6.11	U^O*A^O*G^O*A^O*A^O*t*g*g*c*a*c*a*t*c*t*C^O*U^O*U^O*G^O*G^O [ASO-4]	0.29	0.11	3	highest relative potency	increased UBE3A RNA levels in a dose dependent manner	0.36	0.85	0.21	0.87	0.08	0.16	0.04	largest effect	0.09	−0.06	decrease of UBE3A-AS RNA levels (UBE3A-AS; treated 14 DIV, RNA 20 DIV): 87%; decrease of UBE3A-AS RNA levels (UBE3A-AS; treated 59 DIV, RNA 65 DIV): 81%; Relative Potency (UBE3A-AS; optimized ASOs, parallel model, listed as ASO 4.S): 1; ASO-4/Topotecan Emax ratio (equivalence test) (UBE3A-AS; treated 14 DIV, RNA 20 DIV): −4.1; ASO-4/Topotecan IC50 ratio (equivalence test) (UBE3A-AS; treated 14 DIV, RNA 20 DIV): 1.2; IC50 (UBE3A-AS; treated 14 DIV, RNA 20 DIV, 10-point dose curve 1 nM-30 μM, full model, 4-parameter logistic (Hill), read-out: IC50 Estimate (M), UBE3A-AS): 6.13e-07 M; Emax Estimate (normalized UBE3A-AS RNA level relative to vehicle) (UBE3A-AS; treated 29 DIV, RNA 35 DIV, 4-parameter logistic (Hill)): 0.08
–	–	–	A^L*G^L*A^L*a*t*g*g*c*a*c*a*t*c*t*5mC^L*T^L*T^L*G^L (NNNATGGCACATCTNNNN; LNA gapmer, PS, 5-methylcytosine, chemistry not fully specified) [ASO-4.4.PS.L]	–	–	–	–	–	–	–	–	–	–	–	–	–	–	–	potency relative to the other ASOs of Cluster 1 (UBE3A-AS; Cluster 1 ASOs, 18 DIV to 24 DIV): at least 3 times; Cluster (hierarchical clustering of fitted dose response curves) (UBE3A-AS; candidate ASOs, Cluster 1 representing the 9 most potent ASOs): 1
–	–	–	CC[C@@]1(O)C(=O)OCc2c1cc1n(c2=O)Cc2cc3c(CN(C)C)c(O)ccc3nc2-1 [Topotecan, reference compound]	–	–	–	–	–	0.15	0.64	–	0.66	–	–	–	–	0.21	0.26	IC50 (UBE3A-AS; Homo sapiens, Neuron, treated 14 DIV, RNA 20 DIV, 10-point dose curve 1 nM-30 μM, full model, 4-parameter logistic (Hill), read-out: IC50 Estimate (M), UBE3A-AS): 3.37e-08 M
